Experiment [1] relates to mitochondrial DNA in cytoplasm. Put plainly: Cytoplasmic DNA source by Q-PCR after nuclear-cytoplasmic separation in THP-1 cells. The class given is cell-based, human. As to conditions: control THP-1 cells treated with Mdivi, with or without SeV or LPS; similar to MCM8 knockdown. An excerpt: Therefore, in order to explore whether DNA is produced in cytoplasm and the source, the inventors further knocked down MCM8 in THP-1 cells by transfection with MCM8-specific siRNA and stimulated the cells with SeV or poly(dA:dT). The stimulated cells were subjected to nuclear-cytoplasmic separation (Beyotime nuclear protein and cytoplasmic protein extraction kit was used for the nuclear-cytoplasmic separation herein, and the operation followed the instructions, the same below), and the cytoplasmic DNA was extracted for detecting the source of cytoplasmic DNA by qPCR.
Furthermore, the MCM8-knockdown THP-1 cells were stimulated or not stimulated with SeV and LPS, respectively, and treated with or without the mitophagosome formation inhibitor Mdivi, and the cytoplasmic DNA was extracted, and the content of mitochondrial DNA in cytoplasm and the expressions of IFNα and IFNβ were detected by Q-PCR.

Another experiment concerns IFNα and IFNβ. Put plainly: Expression of IFNα and IFNβ by Q-PCR in THP-1 cells treated with mitophagosome formation inhibitor Mdivi. The class given is cell-based, human. As to conditions: control THP-1 cells treated with Mdivi, with or without SeV or LPS; similar to MCM8 knockdown.

Regarding `COc1cc(-n2c(=S)[nH]c3ccccc3c2=O)c(Cl)cc1Cl` [Mdivi], in experiment [1], the “mtDNA aggregation in cytoplasm (Q-PCR)” value is “mtDNA aggregation”. Moreover, in the experiment with IFNα and IFNβ, the “expression levels of IFNα and IFNβ” value was “increase in the expression levels of IFNα and IFNβ”.

Source of the values: US20240067683A1, “USE OF MCM8-CGAS-STING-IFN-I SIGNAL PATHWAY AS DISEASE TARGET” (Guangzhou Women and Children's Medical Center, priority 2020, published 2024).
